Patent publication US10144732B2 (BIOGEN MA INC., priority 2014, dated 2018)
Counter-ions that a name gives are not always drawn. Like-named read-outs stand apart in the source and are kept apart here.

Target: T1, Human ATX protein (Homo sapiens, UniProt Q13822)
T1 construct: made in house
Assay: ATX biochemical assay (FRET, FS-3 substrate)
Conditions: FS-3 2 μM, ATX 1.0 μg/mL, 30 minutes preincubation, 2 hours reaction at room temperature
How it was run: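 In-house human ATX (1.0 μg/mL final) was preincubated with compound for 30 min at room temperature in Tris buffer pH 7.4 with 1 mg/mL fatty acid free-BSA. FS-3 substrate (2 μM final) was then hydrolysed for 2 hours at room temperature, protected from light, and read as fluorescence at ex 485/em 538 nm.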

Structure (SMILES) | IC50 (FRET assay, read-out: IC50) | IC50 (IC50, FRET assay)
CN(C(=O)N1CCc2c(C(F)(F)F)nn(Cc3ccc(Cl)cc3F)c2C1)[C@H]1CC[C@@H](C(=O)O)CC1 [Example 5-9, cis-4-(1-(4-Chloro-2-fluorobenzyl)-N-methyl-3-(trifluoromethyl)-4,5,6,7-tetrahydro-1H-pyrazolo[3,4-c]pyridine-6-carboxamido)cyclohexanecarboxylic acid] | ≤ 100 nM | 
O=C(O[C@H]1CC[C@H](C(=O)O)CC1)N1CCc2c(C(F)(F)F)nn(Cc3ccc(Cl)cc3F)c2C1 [Example 7-10, trans-4-((1-(4-chloro-2-fluorobenzyl)-3-(trifluoromethyl)-4,5,6,7-tetrahydro-1H-pyrazolo[3,4-c]pyridine-6-carbonyl)oxy)cyclohexanecarboxylic acid] | ≤ 100 nM | 
CN1CCC(CC(=O)N2CCc3c(C(F)(F)F)nn(Cc4ccc(F)cc4)c3C2)C1 (centres unmarked) [Example 10-5, 1-(1-(4-Fluorobenzyl)-3-(trifluoromethyl)-4,5-dihydro-1H-pyrazolo[3,4-c]pyridin-6(7H)-yl)-2-(1-methylpyrrolidin-3-yl)ethanone] | 100 to 250 nM | 
O=C(CN1CCC(C(F)(F)F)CC1)N1CCc2c(C(F)(F)F)nn(Cc3ccc(F)cc3)c2C1 [Example 12-15, 1-(1-(4-Fluorobenzyl)-3-(trifluoromethyl)-4,5-dihydro-1H-pyrazolo[3,4-c]pyridin-6(7H)-yl)-2-(4-(trifluoromethyl)piperidin-1-yl)ethanone] | ≤ 100 nM | 
O=C(CC1CCN(c2ccccn2)CC1)N1CCc2c(C(F)(F)F)nn(Cc3ccc(F)cc3)c2C1 [Example 18-2, 1-(1-(4-Fluorobenzyl)-3-(trifluoromethyl)-4,5-dihydro-1H-pyrazolo[3,4-c]pyridin-6(7H)-yl)-2-(1-(pyridin-2-yl)piperidin-4-yl)ethanone TFA salt] | ≤ 100 nM | 
O=C(CN[C@H]1CC[C@@H](C(=O)O)CC1)N1CCc2c(C(F)(F)F)nn(Cc3ccc(F)cc3)c2C1 [Example 13-30, cis-4-(2-(1-(4-Fluorobenzyl)-3-(trifluoromethyl)-4,5-dihydro-1H-pyrazolo[3,4-c]pyridin-6(7H)-yl)-2-oxoethylamino)cyclohexanecarboxylic acid TFA salt] | ≤ 100 nM | 
O=C(O)C1CC2COCC(C1)N2CC(=O)N1CCc2c(C(F)(F)F)nn(Cc3ccc(F)cc3)c2C1 (centres unmarked) [Example 13-26, 9-(2-(1-(4-Fluorobenzyl)-3-(trifluoromethyl)-4,5-dihydro-1H-pyrazolo[3,4-c]pyridin-6(7H)-yl)-2-oxoethyl)-3-oxa-9-azabicyclo[3.3.1]nonane-7-carboxylic acid TFA salt] |  | ≤ 100 nM
CN1CCC(CC(=O)N2CCc3c(C(F)(F)F)nn(Cc4ccc(Cl)cc4F)c3C2)CC1C(F)(F)F (centres unmarked) [Example 10-4, 1-(1-(4-Chloro-2-fluorobenzyl)-3-(trifluoromethyl)-4,5-dihydro-1H-pyrazolo[3,4-c]pyridin-6(7H)-yl)-2-(1-methyl-2-(trifluoromethyl)piperidin-4-yl)ethanone TFA salt] | ≤ 100 nM | 
CC1(C)C(CC(=O)N2CCc3c(C(F)(F)F)nn(Cc4ccc(Cl)cc4F)c3C2)CC1C(=O)O (mixture of isomers) [Example 6-14, 3-(2-(1-(4-Chloro-2-fluorobenzyl)-3-(trifluoromethyl)-4,5-dihydro-1H-pyrazolo[3,4-c]pyridin-6(7H)-yl)-2-oxoethyl)-2,2-dimethylcyclobutanecarboxylic acid] | ≤ 100 nM | 
O=C(O)C1CCC(CC(=O)N2CCc3c(C(F)(F)F)nn(CC4CCCCC4)c3C2)CC1 (single isomer, unassigned) [Example 7-13, 4-(2-(1-(cyclohexylmethyl)-3-(trifluoromethyl)-4,5-dihydro-1H-pyrazolo[3,4-c]pyridin-6(7H)-yl)-2-oxoethyl)cyclohexanecarboxylic acid] | ≤ 100 nM | 
O=C(C[C@H]1CC[C@H](C(=O)O)CC1)N1CCc2c(C(F)(F)F)nn(Cc3cc(F)cc(Cl)c3)c2C1 [Example 5-3, trans-4-(2-(1-(3-chloro-5-fluorobenzyl)-3-(trifluoromethyl)-4,5-dihydro-1H-pyrazolo[3,4-c]pyridin-6(7H)-yl)-2-oxoethyl)cyclohexanecarboxylic acid] | ≤ 100 nM | 
